How the values were obtained:
[1] = Cytotoxicity against LPS-activated […] cells assessed as cell viability at 30 uM after 24 hrs by MTT assay (reference value: 98.03 to 98.84%); format: toxicity, cell-based, Mus musculus, BV-2; conditions: read-out: Activity
[2] = Antineuroinflammatory activity in […] cells assessed as inhibition of LPS-induced NO production after 24 hrs in presence of LPS by Griess reaction; format: functional, cell-based; conditions: BV-2, 24 h
[3] = Cytotoxicity against LPS-activated […] cells assessed as cell viability at 10 uM after 24 hrs by MTT assay (reference value: 98.03 to 98.84%); format: toxicity, cell-based, Mus musculus, BV-2; conditions: read-out: Activity
[4] = Cytotoxicity against LPS-activated human BV2 cells assessed as cell viability at 1 uM after 24 hrs by MTT assay (reference value: 98.03 to 98.84%); format: toxicity, cell-based, Mus musculus, BV-2; conditions: read-out: Activity
[5] = Cytotoxicity against LPS-activated human BV2 cells assessed as cell viability at 100 uM after 24 hrs by MTT assay (reference value: 98.03 to 98.84%); format: toxicity, cell-based, Mus musculus, BV-2; conditions: read-out: Activity

Row | IC50 [2] [µM] | Compound | viability at 24 h, 30 µM [1] [%] | viability at 24 h, 10 µM [3] [%] | viability at 24 h, 1 µM [4] [%] | viability at 24 h, 100 µM [5] [%]
1 | 3.08 | COc1cc([C@H]2OC[C@H]3[C@@H]2CO[C@@H]3c2cc(OC)c(O[C@@H]3O[C@H](CO)[C@@H](O)[C@H](O)[C@H]3O)c(OC)c2)cc(OC)c1O | 95.4 | 87.4 | 92.9 | 94.4
2 | > 100 | COc1cc(CO)cc(OC)c1O[C@@H]1O[C@H](CO)[C@@H](O)[C@H](O)[C@H]1O | 90.7 | 94.7 | 91.1 | 87
3 | > 100 | O=C(O)/C=C\c1ccc(O[C@@H]2O[C@H](CO)[C@@H](O)[C@H](O)[C@H]2O)cc1 | 93 | 95.4 | 90.9 | 90
4 | > 100 | COc1cc([C@@H]2OC[C@H]3[C@@H]2CO[C@@H]3c2cc(OC)c(O[C@@H]3O[C@H](CO)[C@@H](O)[C@H](O)[C@H]3O)c(OC)c2)cc(OC)c1O | 102 | 91.6 | 92.4 | 100
5 | > 100 | COc1cc(/C=C/C(=O)O)cc(OC)c1O[C@@H]1O[C@H](CO)[C@@H](O)[C@H](O)[C@H]1O | 93.1 | 96.3 | 94.5 | 95.6
6 | 74.7 | C[C@@H]1O[C@@H](OC[C@H]2O[C@@H](Oc3c(-c4cc(O)c(O)c(O)c4)oc4cc(O)cc(O)c4c3=O)[C@H](O)[C@@H](O)[C@@H]2O)[C@H](O)[C@H](O)[C@H]1O | 86 | 87.1 | 92.2 | 86.9
7 | > 100 | Oc1cc(O)c2c(c1)O[C@]1(c3ccc(O)c(O)c3)Oc3cc(O)c4c(c3[C@H]2[C@@H]1O)O[C@@]1(c2ccc(O)c(O)c2)Oc2cc(O)c3c(c2[C@@H]4[C@H]1O)O[C@@H](c1ccc(O)c(O)c1)[C@H](O)C3 | 104 | 97.3 | 94.4 | 112
8 | 9.08 | O=C(O)/C=C/c1ccc(O[C@@H]2O[C@H](CO)[C@@H](O)[C@H](O)[C@H]2O)cc1 | 101 | 98.4 | 101 | 94.7
9 | > 100 | O=c1c(O[C@@H]2O[C@H](CO)[C@@H](O)[C@H](O)[C@H]2O[C@@H]2O[C@H](CO)[C@@H](O)[C@H](O)[C@H]2O)c(-c2ccc(O)c(O)c2)oc2cc(O)cc(O)c12 | 96.5 | 87.7 | 84.5 | 108
10 | > 100 | C[C@@H]1O[C@@H](Oc2c(-c3cc(O)c(O)c(O)c3)oc3cc(O)cc(O)c3c2=O)[C@H](O)[C@H](O)[C@H]1O | 99.3 | 99.5 | 97.9 | 107
11 | 47.4 | Oc1cc(O)c2c(c1)O[C@H](c1ccc(O)c(O)c1)[C@H](O)C2 [(-)-EPICATECHIN] | 88 | 87.6 | 84.4 | 93.2
12 | 9.52 | Oc1cc(O)c2c(c1)O[C@H](c1ccc(O)c(O)c1)[C@@H](O)C2 [CIANIDANOL] | 102 | 88.3 | 81.5 | 117
13 | 13.4 | O=c1c(O[C@@H]2O[C@H](CO)[C@@H](O)[C@H](O)[C@H]2O)c(-c2ccc(O)c(O)c2)oc2cc(O)cc(O)c12 [ISOQUERCETIN] | 87.7 | 98.4 | 101 | 85.2
14 | 37 | CN(C)c1ccc(O)c2c1C[C@H]1C[C@H]3[C@H](N(C)C)C(O)=C(C(N)=O)C(=O)[C@@]3(O)C(O)=C1C2=O [MINOCYCLINE] |  |  |  | 
15 | > 100 | O=c1c(O)c(-c2cc(O)c(O)c(O)c2)oc2cc(O)cc(O)c12 [MYRICETIN] | 109 | 98.4 | 97.7 | 116
16 | > 100 | COc1cc(-c2oc3cc(O)cc(O)c3c(=O)c2O[C@@H]2O[C@H](CO[C@@H]3O[C@@H](C)[C@H](O)[C@@H](O)[C@H]3O)[C@@H](O)[C@H](O)[C@H]2O)ccc1O [NARCISSIN] | 88.7 | 89.5 | 95.1 | 88.8
17 | 88 | C[C@@H]1O[C@@H](OC[C@H]2O[C@@H](Oc3c(-c4ccc(O)cc4)oc4cc(O)cc(O)c4c3=O)[C@H](O)[C@@H](O)[C@@H]2O)[C@H](O)[C@H](O)[C@H]1O [NICOTIFLOROSIDE] | 92.1 | 110 | 98.7 | 113
18 |  | C[C@@H]1O[C@@H](OC[C@H]2O[C@@H](Oc3c(-c4ccc(O)c(O)c4)oc4cc(O)cc(O)c4c3=O)[C@H](O)[C@@H](O)[C@@H]2O)[C@H](O)[C@H](O)[C@H]1O [RUTIN] | 91 | 94.6 | 97.2 | 95

Row | Compound | IC50 [2] [µM] | viability at 24 h, 30 µM [1] [%] | viability at 24 h, 10 µM [3] [%] | viability at 24 h, 1 µM [4] [%] | viability at 24 h, 100 µM [5] [%]
19 | COc1cc([C@@H]2OC[C@H]3[C@@H]2CO[C@H]3c2cc(OC)c(O[C@@H]3O[C@H](CO)[C@@H](O)[C@H](O)[C@H]3O)c(OC)c2)cc(OC)c1O[C@@H]1O[C@H](CO)[C@@H](O)[C@H](O)[C@H]1O | > 100 | 100 | 97.5 | 100 | 94.9
20 | Oc1cc(O)c2c(c1)O[C@H](c1cc(O)c(O)c(O)c1)[C@H](O)C2 [EPIGALLOCATECHIN] | > 100 | 100 | 96.4 | 95.3 | 94.6
21 | Oc1cc(O)c2c(c1)O[C@H](c1cc(O)c(O)c(O)c1)[C@@H](O)C2 [GALLOCATECHIN] | > 100 | 89.5 | 94.2 | 89.5 | 82.6
22 | O=c1c(O)c(-c2ccc(O)c(O)c2)oc2cc(O)cc(O)c12 [QUERCETIN] | 39.5 | 96.9 | 90.7 | 87.5 | 99.7
23 | C[C@@H]1O[C@@H](Oc2c(-c3ccc(O)c(O)c3)oc3cc(O)cc(O)c3c2=O)[C@H](O)[C@H](O)[C@H]1O [QUERCITRIN] | > 100 | 99.3 | 91 | 92 | 96.5
